The assay concerns E. coli (MG1655). Nature of the assay: BAC combination (synergy/antagonism) testing in ES1, ES2 and ES3 MicroPlate sensitivity panels, tetrazolium violet. It is filed as cell-based. The procedure:
In this Example, the susceptibility of E. coli (MG1655) was tested in the presence of vancomycin (10 μg/ml) or sulfamethoxazole (235 μg/ml) in microarrays containing various additional compounds. The microarrays were present in three Biolog™ sensitivity test panels, referred to as ES1, ES2 and ES3 MicroPlates™. The organisms were added to a sterile aqueous suspension containing 0.40% NaCl, 0.03% pluronic F68, 0.01% phytagel, and 0.01% tetrazolium violet, to a cell density of 85% transmittance (as measured using a BiologTm turbidimeter). The BAC to be tested was added to the suspension just prior to inoculating the organisms (100 μl/well) into the wells of the microarrays. The wells of these ES MicroPlates™ contained a basal broth medium consisting of tryptone (2 g/L), yeast extract (1 g/L), and NaCl (1 g/L). […]

Here are results for twelve compounds from patent US6436631B1, “Comparative phenotype analysis for assessment of biologically active compounds such as antimicrobials” (priority 2000, dated 2002).

In the case of `O=[N+]([O-])c1ncc[nH]1` [azomycin], the “change of sensitivity of E. coli strain to panel compound” value (shortened to “change of sensitivity of E. coli strain”) (in the presence of 235 μg/ml sulfamethoxazole, azomycin at 0.2, 0.4, 0.8 and 1.6 μg/ml) is recorded as “increased sensitivity”.

`N[C@@H](C(=O)N[C@@H]1C(=O)N2C(C(=O)O)=C(Cl)CS[C@H]12)c1ccccc1` [cefaclor]: the “change of sensitivity of E. coli strain” value (in the presence of 235 μg/ml sulfamethoxazole, cefaclor at 1.33, 2.66 and 5.33 μg/ml) was “increased sensitivity”.

For the compound `Cc1nnc(SCC2=C(C(=O)O)N3C(=O)[C@@H](NC(=O)Cn4cnnn4)[C@H]3SC2)s1` [cefazolin], the “change of sensitivity of E. coli strain” value by setting is: (in the presence of 10 μg/ml vancomycin, cefazolin at 2.0 and 4.0 μg/ml) “increased sensitivity”; (in the presence of 235 μg/ml sulfamethoxazole, cefazolin at 0.5, 1.0, 2.0 and 4.0 μg/ml) “increased sensitivity”.

As for `CO[C@@]1(NC(=O)Cc2cccs2)C(=O)N2C(C(=O)O)=C(COC(N)=O)CS[C@@H]21` [cefoxitin], the “change of sensitivity of E. coli strain” value (in the presence of 10 μg/ml vancomycin, cefoxitin at 0.75 and 1.5 μg/ml) is given as “increased sensitivity”.

Consider `NC(=O)c1cc[n+](CC2=C(C(=O)O)N3C(=O)[C@@H](NC(=O)[C@@H](c4ccccc4)S(=O)(=O)[O-])[C@H]3SC2)cc1` [cefsulodin], for which the “change of sensitivity of E. coli strain” value (in the presence of 235 μg/ml sulfamethoxazole, cefsulodin at 8 and 16 μg/ml) is recorded as “increased sensitivity”.

Regarding `O=C(Cc1cccs1)N[C@@H]1C(=O)N2C(C(=O)[O-])=C(C[n+]3ccccc3)CS[C@H]12` [cephaloridine], the “change of sensitivity of E. coli strain” value (in the presence of 235 μg/ml sulfamethoxazole, cephaloridine at 0.75, 1.5, 3.0 and 6.0 μg/ml) is on record as “increased sensitivity”.

`[Cl][Cr]([Cl])[Cl]` [chromium chloride]: the “change of sensitivity of E. coli strain” value (in the presence of 235 μg/ml sulfamethoxazole, chromium chloride at 200 and 400 μg/ml) is listed as “increased sensitivity”.

Consider `[Cl][Co][Cl]` [cobalt chloride], for which the “change of sensitivity of E. coli strain” value (in the presence of 235 μg/ml sulfamethoxazole, cobalt chloride 12 and 25 μg/ml) is on record as “increased sensitivity”.

For `CC(=O)O[C@H]1C[C@@]2(C)[C@@H](C[C@@H](O)[C@H]3[C@@]4(C)CC[C@@H](O)[C@@H](C)[C@@H]4CC[C@@]32C)/C1=C(\CCC=C(C)C)C(=O)O` [fusidic acid], the “change of sensitivity of E. coli strain” value (in the presence of 10 μg/ml vancomycin, fusidic acid at 200 and 400 μg/ml) is given as “increased sensitivity”.

Consider `[Cl][Ni][Cl]` [nickel chloride], for which the “change of sensitivity of E. coli strain” value (in the presence of 235 μg/ml sulfamethoxazole, nickel chloride at 20 and 40 μg/ml) was “increased sensitivity”.

On to `CO[C@@H]1[C@@H](OC(N)=O)[C@@H](O)[C@H](Oc2ccc3c(O)c(NC(=O)c4ccc(O)c(CC=C(C)C)c4)c(=O)oc3c2C)OC1(C)C` [novobiocin], for which the “change of sensitivity of E. coli strain” value (in the presence of 10 μg/ml vancomycin, novobiocin at 33 and 66 μg/ml) is “increased sensitivity”; the “change of sensitivity of E. coli strain” value (in the presence of 235 μg/ml sulfamethoxazole, novobiocin at 66 and 133 μg/ml) is given as “increased resistance”.

With `COc1cc(Cc2cnc(N)nc2N)cc(OC)c1OC` [trimethoprim], the “change of sensitivity of E. coli strain” value reads like this: (in the presence of 10 μg/ml vancomycin, trimethoprim at 0.17, 0.33, 0.67 and 1.3 ng/ml) “increased sensitivity”; (in the presence of 235 μg/ml sulfamethoxazole, trimethoprim at 0.17, 0.33, 0.67 and 1.3 ng/ml) “increased sensitivity”.
